Drawing on patent publication US10077243B2, “Compounds for treating disorders mediated by metabotropic glutamate receptor 5, and methods of use thereof” (Sunovion Pharmaceuticals Inc., priority 2009, dated 2018), this text covers EC50 for 31 compounds.

SMILES strings stand for the structures. pEC50: −log10 of the molar value.

The target in the assay is T1, human mGluR5 (Homo sapiens, UniProt P41594).
T1 construct: expressed in transfected cells; host or cells: HEK293 cells stably expressing rat GLAST (EAAT1), stably transfected with pcDNAzeo3.1 carrying synthetic human mGluR5 DNA; zeocin-selected single clones
T1 sequence (P41594 21-1212): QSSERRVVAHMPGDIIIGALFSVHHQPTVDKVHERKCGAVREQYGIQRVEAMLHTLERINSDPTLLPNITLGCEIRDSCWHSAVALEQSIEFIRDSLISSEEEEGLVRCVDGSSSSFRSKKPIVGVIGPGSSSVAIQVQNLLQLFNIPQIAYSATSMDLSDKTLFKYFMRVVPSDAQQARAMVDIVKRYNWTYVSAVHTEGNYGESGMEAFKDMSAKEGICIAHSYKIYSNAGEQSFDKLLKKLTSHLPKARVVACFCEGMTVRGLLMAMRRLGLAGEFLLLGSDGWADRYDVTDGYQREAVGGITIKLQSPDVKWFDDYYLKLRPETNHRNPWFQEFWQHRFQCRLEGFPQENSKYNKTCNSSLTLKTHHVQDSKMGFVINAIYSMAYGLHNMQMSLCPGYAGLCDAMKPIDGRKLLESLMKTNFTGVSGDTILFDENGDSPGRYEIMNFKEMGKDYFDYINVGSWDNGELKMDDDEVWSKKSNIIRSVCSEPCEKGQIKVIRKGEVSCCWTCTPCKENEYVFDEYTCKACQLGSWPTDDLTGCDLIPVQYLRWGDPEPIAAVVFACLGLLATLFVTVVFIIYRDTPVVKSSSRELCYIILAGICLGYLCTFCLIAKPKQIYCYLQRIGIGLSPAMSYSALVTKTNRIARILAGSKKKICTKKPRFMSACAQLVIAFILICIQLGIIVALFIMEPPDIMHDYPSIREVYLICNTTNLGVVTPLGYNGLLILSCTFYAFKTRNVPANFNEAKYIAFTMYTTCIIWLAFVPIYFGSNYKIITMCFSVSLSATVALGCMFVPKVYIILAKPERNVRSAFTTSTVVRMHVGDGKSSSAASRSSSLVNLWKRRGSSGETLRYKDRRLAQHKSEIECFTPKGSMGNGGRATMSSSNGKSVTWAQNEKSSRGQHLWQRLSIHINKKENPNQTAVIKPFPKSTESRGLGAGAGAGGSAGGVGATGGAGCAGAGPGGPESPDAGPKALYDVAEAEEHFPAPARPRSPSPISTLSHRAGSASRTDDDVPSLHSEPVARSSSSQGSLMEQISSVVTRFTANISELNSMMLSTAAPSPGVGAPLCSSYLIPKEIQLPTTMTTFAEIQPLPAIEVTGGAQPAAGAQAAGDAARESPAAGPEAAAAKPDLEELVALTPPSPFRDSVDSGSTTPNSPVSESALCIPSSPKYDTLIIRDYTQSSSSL
As to the kind of experiment: In vitro cell-based FLIPR calcium assay for positive modulation of the activation of mGluR5 by glutamate (PAM EC50). Particulars: HEK293/GLAST cells expressing recombinant human mGluR5; FLIPR calcium signal; glutamate added at its EC20; read-out: mGluR5 PAM EC50. The text has this: The DNA sequences encoding the structural regions for rat mGluR5 [Abe T, Sugihara H, Nawa H, Shigemoto R, Mizuno N, Nakanishi S (1992) “Molecular characterization of a novel metabotropic glutamate receptor mGluR5 coupled to inositol phosphate/Ca^2+ signal transduction” Journal of Biological Chemistry vol. 267, no. 19, pp. 13361-8] and human mGluR5 [Daggett L P, Sacaan A I, Akong M, Rao S P, Hess S D, Liaw C, Urrutia A, Jachec C, Ellis S B, Dreessen J, Knöpfel T, Landwehrmeyer G B, Testa C M, Young A B, Varney M, Johnson E C, Veliçelebi (1995) “Molecular and functional characterization of recombinant human metabotropic glutamate receptor subtype 5” Neuropharmacology vol. 34, no. […] 53, no. 3, pp. 355-369] was obtained from Dr. Michael Robinson of the Children's Hospital of Philadelphia under a Material Transfer Agreement. The pcDNAzeo3.1 vector DNA, carrying either rat mGluR5 or human mGluR5, was used to transfect a sample of the HEK293/GLAST cells, and single clones that express mGluR5 were isolated from the transfected cells using zeocin selection. Expression of mGluR5 was assessed by measurement of the transient fluorescence signal elicited from HEK293/GLAST/mGluR5 cells by glutamate following the loading of the cells with a calcium-sensitive dye using a FLIPR Tetra (Fluorometric Imaging Plate Reader) (Molecular Devices, Sunnyvale, Calif.) [O'Brien J A, Lemaire W, Chen T B, Chang R S, Jacobson M A, Ha S N, Lindsley C W, Schaffhauser H J, Sur C, Pettibone D J, Conn P J, Williams D L Jr. […] 64, no. 3, pp. 731-740; Assay Guidance Manual Version 5.0, 2008, Eli Lilly and Company and NIH Chemical Genomics Center; available online HEK293/GLAST/mGluR5 cells were grown in Dulbecco's Modified Eagle Medium (DMEM) supplemented with 10% dialyzed fetal bovine serum, 20 millimolar (mM) N-2-hydroxyethylpiperazine-N′-2-ethanesulfonic acid (HEPES), penicillin, streptomycin, 1% GlutaMax™ (Invitrogen) and 50 μg/ml zeocin. Cells were grown in the media to 70-80% confluency at 37° C. under 5% CO2, 95% humidity in poly-D-lysine coated coated flasks. Cells for assays were plated into 96-well sterile standard microtiter plates (pre-coated with poly-D-lysine) at a density of 50,000 cells per well in 0.2 milliliters of media. Plated cells were allowed to settle and adhere for 30 minutes at ambient conditions, and then were incubated overnight at 37° C. under 5% CO2, 95% humidity. Several such 96-well plates were typically prepared. On the day of the assays, the components of the FLIPR calcium 4 assay kit (Molecular Devices) were dissolved according to the instructions of the dye kit's manufacturer in assay buffer (Hank's balanced salt solution (HBSS) (Gibco) supplemented with 20 mM HEPES). After removal of the growth media from the first plate, cells were loaded with calcium dye by addition of calcium dye solution (50 microliters per well) and incubation at 25° C. for 45 to 60 minutes. The first plate was placed into the FLIPR Tetra, and a dilution series of glutamate solutions in assay buffer were added to wells on the plate, followed by acquisition of fluorescence data for several minutes. The fluorescence data (maximal signal as a 4-parameter sigmoidal function of log [glutamate]) were processed by non-linear regression methods using the software package GraphPad Prism 5.01 (GraphPad Software Inc.), to yield a glutamate concentration-response curve (CRC). […] These values were, respectively, the concentrations of glutamate that elicit 20%, 50%, and 80% of the maximal FLIPR signal (observed at saturating [glutamate]). The method for measuring the concentration response of a potentiator, or positive allosteric modulator (PAM), is described here as an example. For that purpose, subsequent assays were typically performed using assay buffer containing a glutamate concentration equal to that day's EC20. […] Addition to certain wells of the same buffer containing 0.3% DMSO, but without any test compound, provided a negative control.
Turning to `O=c1c2ccc(C#Cc3ccc(F)cc3)cc2ncn1Cc1ccco1` [Example 1.14, 7-((4-fluorophenyl)ethynyl)-3-(furan-2-ylmethyl)quinazolin-4(3H)-one], the pEC50 (commonly −log10 of the EC50, conventionally taken in molar units) is 6.00 to 6.52. In the case of `COCCn1cnc2cc(C#Cc3ccncc3)ccc2c1=O` [Example 1.17, 3-(2-methoxyethyl)-7-(pyridin-4-ylethynyl)quinazolin-4(3H)-one], the pEC50 is 6.52 to 7.00. As to `CCC(C)n1cnc2cc(C#Cc3cccc(F)c3)ccc2c1=O` (stereo not shown) [Example 1.19, 3-(sec-butyl)-7-((3-fluorophenyl)ethynyl)quinazolin-4(3H)-one], the pEC50 is more than 8.00. With `CC(C)Cn1cnc2cc(C#Cc3cccc(F)c3)ccc2c1=O` [Example 1.20, 7-((3-fluorophenyl)ethynyl)-3-isobutylquinazolin-4(3H)-one], the pEC50 was 7.00 to 7.52.

For `CN1CCCC1Cn1cnc2cc(C#Cc3cccc(F)c3)ccc2c1=O` (stereo not shown) [Example 1.21, 7-((3-fluorophenyl)ethynyl)-3-((1-methylpyrrolidin-2-yl)methyl)quinazolin-4(3H)-one], the pEC50 was 6.52 to 7.00. Regarding `COCCc1nc2cc(C#Cc3cccc(F)c3)ccc2c(=O)n1C` [Example 2.1, 7-((3-fluorophenyl)ethynyl)-2-(2-methoxyethyl)-3-methylquinazolin-4(3H)-one], the pEC50 is more than 8.00. For `Cn1c(C2CCOC2)nc2cc(C#Cc3cccc(F)c3)ccc2c1=O` (stereo not shown) [Example 2.2, 7-((3-fluorophenyl)ethynyl)-3-methyl-2-(tetrahydrofuran-3-yl)quinazolin-4(3H)-one], the pEC50 was 6.00 to 6.52. `Cn1c(C2CCCO2)nc2cc(C#Cc3cccc(F)c3)ccc2c1=O` (stereo not shown) [Example 2.3, 7-((3-fluorophenyl)ethynyl)-3-methyl-2-(tetrahydrofuran-2-yl)quinazolin-4(3H)-one]: the pEC50 was 6.00 to 6.52. With `CN1CCCC1c1nc2cc(C#Cc3cccc(F)c3)ccc2c(=O)n1C` (stereo not shown) [Example 2.4, 7-((3-fluorophenyl)ethynyl)-3-methyl-2-(1-methylpyrrolidin-2-yl)quinazolin-4(3H)-one], the pEC50 is 6.52 to 7.00. As for `Cn1c(CN2CCCC2)nc2cc(C#Cc3cccc(F)c3)ccc2c1=O` [Example 2.6, 7-((3-fluorophenyl)ethynyl)-3-methyl-2-(pyrrolidin-1-ylmethyl)quinazolin-4(3H)-one], the pEC50 was 6.52 to 7.00. As to `CN(C)Cc1nc2cc(C#Cc3cccc(F)c3)ccc2c(=O)n1C` [Example 2.7, 2-((dimethylamino)methyl)-7-((3-fluorophenyl)ethynyl)-3-methylquinazolin-4(3H)-one], the pEC50 is 7.00 to 7.52. In the case of `CN1CCOCC1c1nc2cc(C#Cc3cccc(F)c3)ccc2c(=O)n1C` (stereo not shown) [Example 2.9, 7-((3-fluorophenyl)ethynyl)-3-methyl-2-(4-methylmorpholin-3-yl)quinazolin-4(3H)-one], the pEC50 was more than 8.00. To `COC(C)c1nc2cc(C#Cc3cccc(F)c3)ccc2c(=O)n1C` (stereo not shown) [Example 2.11, 7-((3-fluorophenyl)ethynyl)-2-(1-methoxyethyl)-3-methylquinazolin-4(3H)-one] belongs more than 8.00; to `CC(C)Cc1nc2cc(C#Cc3cccc(F)c3)ccc2c(=O)n1C` [Example 2.12, 7-((3-fluorophenyl)ethynyl)-2-isobutyl-3-methylquinazolin-4(3H)-one], 7.00 to 7.52. As for `COCCc1nc2cc(C#Cc3cccc(F)c3)ccc2c(=O)[nH]1` [Example 2.13, 7-((3-fluorophenyl)ethynyl)-2-(2-methoxyethyl)quinazolin-4(3H)-one], the pEC50 is 6.52 to 7.00. To `CCC(C)c1nc2cc(C#Cc3cccc(F)c3)ccc2c(=O)n1C` (stereo not shown) [Example 2.14, 2-(sec-butyl)-7-((3-fluorophenyl)ethynyl)-3-methylquinazolin-4(3H)-one] belongs 6.00 to 6.52; to `COCc1nc2cc(C#Cc3cccc(F)c3)ccc2c(=O)n1C` [Example 2.18, 7-((3-fluorophenyl)ethynyl)-2-(methoxymethyl)-3-methylquinazolin-4(3H)-one], 7.52 to 8.00.

Consider `CC(c1nc2cc(C#Cc3ccccn3)ccc2c(=O)n1C)N(C)C` (stereo not shown) [Example 2.21, 2-(1-(dimethylamino)ethyl)-3-methyl-7-(pyridin-2-ylethynyl)quinazolin-4(3H)-one], for which the pEC50 was 6.52 to 7.00. As for `CC(C)N(C)C(C)c1nc2cc(C#Cc3ccccn3)ccc2c(=O)n1C` (stereo not shown) [Example 2.22, 2-(1-(isopropyl(methyl)amino)ethyl)-3-methyl-7-(pyridin-2-ylethynyl)quinazolin-4(3H)-one], the pEC50 was 6.00 to 6.52. Under `CC(c1nc2cc(C#Cc3ccccn3)ccc2c(=O)n1C)N(C)C1CCC1` (stereo not shown) [Example 2.23, 2-(1-(cyclobutyl(methyl)amino)ethyl)-3-methyl-7-(pyridin-2-ylethynyl)quinazolin-4(3H)-one] stands 6.00 to 6.52; under `O=c1c2ccc(C#Cc3cccc(F)c3)cc2nc2n1CCC2` [Example 3.1, 6-((3-fluorophenyl)ethynyl)-2,3-dihydropyrrolo[2,1-b]quinazolin-9(1H)-one], more than 8.00; under `CN(C)CC1CCc2nc3cc(C#Cc4cccc(F)c4)ccc3c(=O)n21` (stereo not shown) [Example 3.4, 1-((dimethylamino)methyl)-6-((3-fluorophenyl)ethynyl)-2,3-dihydropyrrolo[2,1-b]quinazolin-9(1H)-one], 6.52 to 7.00.

For the compound `O=c1c2ccc(C#Cc3cccc(F)c3)cc2nc2n1C(CO)CC2` (stereo not shown) [Example 3.5, 6-((3-fluorophenyl)ethynyl)-1-(hydroxymethyl)-2,3-dihydropyrrolo[2,1-b]quinazolin-9(1H)-one], the negative-log EC50 (pEC50) was 7.00 to 7.52. Consider `COCC1CCc2nc3cc(C#Cc4cccc(F)c4)ccc3c(=O)n21` (stereo not shown) [Example 3.6, 6-((3-fluorophenyl)ethynyl)-1-(methoxymethyl)-2,3-dihydropyrrolo[2,1-b]quinazolin-9(1H)-one], for which the negative logarithm of the EC50 (pEC50) is more than 8.00.

In the case of `COCC1CCc2nc3cc(C#Cc4ccccn4)ccc3c(=O)n21` (stereo not shown) [Example 3.7, 1-(methoxymethyl)-6-(pyridin-2-ylethynyl)-2,3-dihydropyrrolo[2,1-b]quinazolin-9(1H)-one], the pEC50 is 7.00 to 7.52. As to `CC1Cc2nc3cc(C#Cc4cccc(F)c4)ccc3c(=O)n2C1` (stereo not shown) [Example 3.8], the pEC50 was more than 8.00.

For `CC(C)CC1Cc2nc3cc(C#Cc4cccc(F)c4)ccc3c(=O)n2C1` (stereo not shown) [Example 3.9, 6-((3-fluorophenyl)ethynyl)-2-isobutyl-2,3-dihydropyrrolo[2,1-b]quinazolin-9(1H)-one], the pEC50 was 7.52 to 8.00. `O=c1c2ccc(C#Cc3cccc(F)c3)cc2nc2n1CC(Cc1ccccc1)C2` (stereo not shown) [Example 3.10]: the pEC50 was more than 8.00. To `CC1Cc2nc3cc(C#Cc4ccccn4)ccc3c(=O)n2C1` (stereo not shown) [Example 3.11, 2-methyl-6-(pyridin-2-ylethynyl)-2,3-dihydropyrrolo[2,1-b]quinazolin-9(1H)-one] belongs 7.52 to 8.00; to `CC1CCc2nc3cc(C#Cc4ccccn4)ccc3c(=O)n21` (stereo not shown) [Example 3.14, 1-methyl-6-(pyridin-2-ylethynyl)-2,3-dihydropyrrolo[2,1-b]quinazolin-9(1H)-one], 6.52 to 7.00. Consider `CN1CCCCC12Cc1nc3cc(C#Cc4cccc(F)c4)ccc3c(=O)n1C2` (stereo not shown) [Example 3.16, 6′-((3-fluorophenyl)ethynyl)-1-methyl-1′H-spiro[piperidine-2,2′-pyrrolo[2,1-b]quinazolin]-9′(3′ H)-one], for which the pEC50 is 6.52 to 7.00.
